Experimental data from USRE38921E1, “Phenoxyalkylcarboxylic acid derivatives and process for their preparations” (Kyorin Pharmaceutical Co., Ltd., priority 1988, dated 2005).

Assays:
[1] = test system: bronchoconstrictor response induced by leukotriene D4; test: Inhibition test of bronchoconstriction in guinea pig; format: in vivo; design: unit not given here; settings: 2 hours before i.v. leukotriene D4 (3 μg/kg), anesthetized male Hartley guinea pig
Experimental: Male Hartley guinea pig weighing about 450 g was anesthetized with sodium pentobarbital (30 mg/kg,i.p.), and the changes in transpulmonary pressure was measured according to the modified method of Konzett-Rössler (J. Harvey et al., J. Pharmacol. Method. 9, 147-155, 1983). Bronchoconstrictor response was induced by injection of leukotriene D4 (3 μg/kg) into left jugular vein. Further, indomethacin and propranolol were injected into vein of the animal, prior to the injection of leukotriene D4. Test compounds suspended in 5% solution of Gum Arabic were administered orally 2 hours before the injection of leukotriene D4.

## CCCc1c(SCCCOc2ccc(C(C)=O)c(OCCCC(=O)OCC)c2CCC)ccc(C(C)=O)c1O [Example 1, Ethyl 4-[6-acetyl-3-[3-(4-acetyl-3-hydroxy-2-propylphenylthio)propoxy]-2-propylphenoxy]butyrate]
other
  melting point: 65 to 66 °C

## CCCc1c(OCCCSc2ccc(C(C)=O)c(OCCCC(=O)OCC)c2CCC)ccc(C(C)=O)c1O [Example 23, Ethyl 4-[6-acetyl-3-[3-(4-acetyl-3-hydroxy-2-propyl-phenoxy)propylthio]-2-propylphenoxy]butyrate]
other
  melting point: 87 to 88 °C

## CCCc1c([S+]([O-])CCCOc2ccc(C(C)=O)c(OCCCC(=O)OCC)c2CCC)ccc(C(C)=O)c1O (stereo not drawn) [Example 31, Ethyl 4-[6-acetyl-3-[3-(4-acetyl-3-hydroxy-2-propyl-phenylsulfinyl)propoxy]-2-propylphenoxy]butyrate]
other
  melting point: 74 to 76 °C

## CCCc1c(S(=O)(=O)CCCOc2ccc(C(C)=O)c(OCCCC(=O)OCC)c2CCC)ccc(C(C)=O)c1O [Example 32, Ethyl 4-[6-acetyl-3-[3-(4-acetyl-3-hydroxy-2-propyl-phenylsulfonyl)propoxy]-2-propylphenoxy]butyrate]
other
  melting point: 77 to 79 °C

## CCCc1c(SCCCOc2ccc(C(C)=O)c(OCCCC(=O)O)c2CCC)ccc(C(C)=O)c1O [Example 33, 4-[6-Acetyl-3-[3-(4-acetyl-3-hydroxy-2-propyl-phenylthio)propoxy]-2-propylphenoxy]butyric acid]
[1]; dose 3.125 mg/kg p.o.
  Inhibition: 28.0
[1]; dose 6.25 mg/kg p.o.
  Inhibition: 40.2
[1]; dose 12.5 mg/kg p.o.
  Inhibition: 63.9
[1]; dose 50 mg/kg p.o.
  Inhibition: 94.8

## CCCc1c(SCCCOc2ccc(C(C)=O)c(OCCCCCC(=O)O)c2CCC)ccc(C(C)=O)c1O [Example 35]
[1]; dose 6.25 mg/kg p.o.
  Inhibition: 10.7
[1]; dose 12.5 mg/kg p.o.
  Inhibition: 51.3
[1]; dose 50 mg/kg p.o.
  Inhibition: 92.4

## CCCc1c(SCCCSc2ccc(C(C)=O)c(OCCCC(=O)O)c2CCC)ccc(C(C)=O)c1O [Example 45]
[1]; dose 1.56 mg/kg p.o.
  Inhibition: 22.4
[1]; dose 3.125 mg/kg p.o.
  Inhibition: 54.2
[1]; dose 6.25 mg/kg p.o.
  Inhibition: 71.3
[1]; dose 12.5 mg/kg p.o.
  Inhibition: 72.7
[1]; dose 50 mg/kg p.o.
  Inhibition: 96.2

## CCCc1c(SCCCSc2ccc(C(C)=O)c(OCCCCC(=O)O)c2CCC)ccc(C(C)=O)c1O [Example 46]
[1]; dose 3.125 mg/kg p.o.
  Inhibition: 38.5
[1]; dose 6.25 mg/kg p.o.
  Inhibition: 46.6
[1]; dose 12.5 mg/kg p.o.
  Inhibition: 37.5
[1]; dose 50 mg/kg p.o.
  Inhibition: 94.2

## CCCc1c(SCCCSc2ccc(C(C)=O)c(OCCCCCC(=O)O)c2CCC)ccc(C(C)=O)c1O [Example 47]
[1]; dose 3.125 mg/kg p.o.
  Inhibition: 29.1
[1]; dose 12.5 mg/kg p.o.
  Inhibition: 72.5
[1]; dose 50 mg/kg p.o.
  Inhibition: 92.9

## CCCc1c(SCCCSc2ccc(C(C)=O)c(OCCCCCCC(=O)O)c2CCC)ccc(C(C)=O)c1O [Example 48]
[1]; dose 3.125 mg/kg p.o.
  Inhibition: 33.6
[1]; dose 12.5 mg/kg p.o.
  Inhibition: 79.7
[1]; dose 50 mg/kg p.o.
  Inhibition: 90.7

## CCCc1c(SCCCSc2ccc(C(C)=O)c(OCCCCCCCCC(=O)O)c2CCC)ccc(C(C)=O)c1O [Example 49]
[1]; dose 6.25 mg/kg p.o.
  Inhibition: 19.1
[1]; dose 12.5 mg/kg p.o.
  Inhibition: 58.9
[1]; dose 50 mg/kg p.o.
  Inhibition: 77.7

## CCCc1c(OCCCSc2ccc(C(C)=O)c(OCCCC(=O)O)c2CCC)ccc(C(C)=O)c1O [Example 53]
[1]; dose 3.125 mg/kg p.o.
  Inhibition: 15.2
[1]; dose 6.25 mg/kg p.o.
  Inhibition: 50.4
[1]; dose 12.5 mg/kg p.o.
  Inhibition: 60.4
[1]; dose 50 mg/kg p.o.
  Inhibition: 66.7

## CCCc1c(OCCCSc2ccc(C(C)=O)c(OCCCCCC(=O)O)c2CCC)ccc(C(C)=O)c1O [Example 55]
[1]; dose 6.25 mg/kg p.o.
  Inhibition: 36.4
[1]; dose 12.5 mg/kg p.o.
  Inhibition: 45.0
[1]; dose 50 mg/kg p.o.
  Inhibition: 88.0
